Reference: ChEMBL document CHEMBL5550215, “Discovery of Novel Imidazo[1,2-a]pyridine-Based HDAC6 Inhibitors as an Anticarcinogen with a Cardioprotective Effect” (J Med Chem, 2024)
Activity calls are given as the source filed them. The calls are words filed in the database; no cut-off is given here.

Legend:
[1] = test system: HCT-116; experiment: Antiproliferative activity against human HCT-116 cells assessed as inhibition of cell growth by MTT assay
[2] = test system: SMMC-7721; experiment: Antiproliferative activity against human SMMC-7721 cells assessed as inhibition of cell growth by MTT assay
[3] = test system: NCI-H460; experiment: Antiproliferative activity against human NCI-H460 cells assessed as inhibition of cell growth by MTT assay
[4] = test system: HGC-27; experiment: Antiproliferative activity against human HGC-27 cells assessed as inhibition of cell growth by MTT assay
[5] = Tmax in male Sprague-Dawley rat at 7 mg/kg,iv measured upto 8 hrs by UPLC-MS/MS analysis; format: ADME, organism-based; conditions: in vivo
[6] = AUC (0 to infinity) in male Sprague-Dawley rat at 7 mg/kg,iv measured upto 8 hrs by UPLC-MS/MS analysis; format: ADME, organism-based; conditions: in vivo
[7] = Observed clearance in male Sprague-Dawley rat at 7 mg/kg,iv measured upto 8 hrs by UPLC-MS/MS analysis; format: ADME, organism-based; conditions: in vivo
[8] = Observed clearance in male Sprague-Dawley rat at 7 mg/kg,po measured upto 8 hrs by UPLC-MS/MS analysis; format: ADME, organism-based; conditions: in vivo
[9] = test system: MGC-803; experiment: Induction of apoptosis in human MGC-803 cells measured after 48 hrs by Annexin V-EGFP and PI staining based flow cytometry analysis; format: functional, cell-based; conditions: dose <= 2.0 µM
[10] = test system: MGC-803; experiment: Induction of apoptosis in human MGC-803 cells assessed as viable cells at 0.5 uM measured after 48 hrs by Annexin V-EGFP and PI staining based flow cytometry analysis (reference value: 92.3%); format: functional; conditions: read-out: Activity
[11] = test system: MGC-803; experiment: Induction of apoptosis in human MGC-803 cells assessed as viable cells at 2 uM measured after 48 hrs by Annexin V-EGFP and PI staining based flow cytometry analysis (reference value: 92.3%); format: functional; conditions: read-out: Activity
[12] = test system: MGC-803; experiment: Induction of apoptosis in human MGC-803 cells assessed as late apoptotic cells at 0.5 uM measured after 48 hrs by Annexin V-EGFP and PI staining based flow cytometry analysis (reference value: 3.16%); format: functional
[13] = test system: MGC-803; experiment: Induction of apoptosis in human MGC-803 cells assessed as late apoptotic cells at 1 uM measured after 48 hrs by Annexin V-EGFP and PI staining based flow cytometry analysis (reference value: 3.16%); format: functional
[14] = test system: MGC-803; experiment: Induction of apoptosis in human MGC-803 cells assessed as necrotic cells at 1 uM measured after 48 hrs by Annexin V-EGFP and PI staining based flow cytometry analysis (reference value: 3.90%); format: functional
[15] = test system: MGC-803; experiment: Induction of apoptosis in human MGC-803 cells assessed as necrotic cells at 2 uM measured after 48 hrs by Annexin V-EGFP and PI staining based flow cytometry analysis (reference value: 3.90%); format: functional
[16] = test system: MGC-803; experiment: Induction of apoptosis in human MGC-803 cells assessed as decrease in Bcl-2 expression by Western blot analysis; format: functional, cell-based; conditions: dose <= 2.0 µM
[17] = Toxicity in C57BL/6 mouse assessed as effect on body weight at 25 to 50 mg/kg, ip measured after 21 days; format: organism-based; conditions: in vivo, 504 h, dose 25-50 mg/kg, time 21 day
[18] = test system: MGC-803; experiment: Antitumor activity against human MGC-803 cells xenografted in […] mouse model assessed as decrease in HDAC6 expression administered as IP dose by Western blot analysis; format: functional, cell-based; conditions: dose 25-50 mg/kg
[19] = test system: H9c2; experiment: Cardioprotective activity in H2O2 induced myocardial injury in rat H9c2 cells assessed as downregulation of IL-1 beta mRNA level at upto 8 uM by q-PCR analysis; format: functional, cell-based
[20] = test system: H9c2; experiment: Cardioprotective activity in H2O2 induced myocardial injury in rat H9c2 cells assessed as downregulation of IL-18 mRNA level at upto 8 uM by q-PCR analysis; format: functional, cell-based
[21] = test system: H9c2; experiment: Cardioprotective activity in H2O2 induced myocardial injury in rat H9c2 cells assessed as effect on HO-1 level at upto 8 uM by q-PCR analysis; format: functional, cell-based
[22] = test system: H9c2; experiment: Cardioprotective activity in H2O2 induced myocardial injury in rat H9c2 cells assessed as effect on beclin1 level at upto 8 uM by q-PCR analysis; format: functional, cell-based
[23] = test system: H9c2; experiment: Cardioprotective activity in H2O2 induced myocardial injury in rat H9c2 cells assessed as effect on LC3 level at upto 8 uM by q-PCR analysis; format: functional, cell-based
[24] = test system: H9c2; experiment: Cardioprotective activity in H2O2 induced myocardial injury in rat H9c2 cells assessed as downregulation of IL-18 expression; format: functional, cell-based; conditions: dose <= 8.0 µM
[25] = test system: Mus musculus; experiment: Cardioprotective activity against myocardial ischemia/reperfusion induced C57BL/6J mouse model assessed as alleviation of extensive myocardial necrosis at 10 mg/kg by H and E staining based analysis; format: functional, organism-based
[26] = test system: Mus musculus; experiment: Cardioprotective activity against myocardial ischemia/reperfusion induced C57BL/6J mouse model assessed as alleviation of severe edema at 10 mg/kg by H and E staining based analysis; format: functional, organism-based
[27] = test system: H9c2; experiment: Cardioprotective activity against H2O2 induced myocardial damage in rat H9c2 cells harbouring Ad.GFP assessed as decrease in LDH leakage rate at 8 uM by absorbance based analysis; format: functional, cell-based
[28] = test system: H9c2; experiment: Cardioprotective activity against H2O2 induced myocardial damage in rat H9c2 cells harbouring Ad.HDAC6 assessed as increase in cell viability at 8 uM by MTT assay; format: functional, cell-based
[29] = test system: H9c2; experiment: Cardioprotective activity against H2O2 induced myocardial damage in rat H9c2 cells harbouring Ad.HDAC6 assessed as decrease in LDH leakage rate at 8 uM by absorbance based analysis; format: functional, cell-based
[30] = test system: H9c2; experiment: Cardioprotective activity against H2O2 induced myocardial damage in rat H9c2 cells harbouring Ad.HDAC6 assessed as reversal of IL-1 beta expression at 8 uM; format: functional, cell-based

Work on `O=C(NO)c1ccc(CNC(=O)c2cc(-c3ccc(F)cc3)cn3ccnc23)cc1` yielded an IC50 [1] greater than 10 µM, an IC50 [2] of 2.74 µM and an IC50 [3] greater than 10 µM. The IC50 [4] was 2.8 µM, the Tmax [5] was 5 min and the AUC(0-inf) [6] was 868 ng·h/mL. The clearance [7] was 134 mL/min/kg, the CL/F [8] was 1590 mL/min/kg and the Activity [9] was “Dose-Dependent Effect”. It also gave a viability at 0.5 µM [10] of 70.5%, a viability at 2 µM [11] of 70.1% and an Activity [12] of 15%. It also gave an Activity [13] of 17.6%, an Activity [14] of 4.7% and an Activity [15] of 4.83%. For the same compound, the Activity [16] was “Dose-Dependent Effect”, the Activity [17] was “Non-Toxic” and the Activity [18] was “Dose-Dependent Effect”. The Activity [19] was “Active”, the Activity [20] was “Active” and the Activity [21] was “inactive”. For the same compound, the Activity [22] was “inactive”, the Activity [23] was “inactive” and the Activity [24] was “Dose-Dependent Effect”. For the same compound, the Activity [25] was “Active”, the Activity [26] was “Active” and the Activity [27] was “Active”. The Activity [28] was “Active”, the Activity [29] was “Active” and the Activity [30] was “Active”.
